# Where two headings read alike, the source gives them in different places.
# Tests used:
# [1] = system: Haemonchus contortus normaler Stamm; assay: Stomach and intestinal worm test in sheep (faecal egg count reduction), normal strain; format: in vivo, Schaf; details: read-out: Dosis effectiva minima (Red. 90 % in mg/kg)
# Description: (§1) Magen- und Darmwurmtest/Schaf
# (§2) Experimentell mit Haemonchus contortus infizierte Schafe wurden nach Ablauf der Präpatenzzeit der Parasiten behandelt. Die Wirkstoffmenge wurde als reiner Wirkstoff in Gelatinekapseln oral appliziert oder in einem geeigneten Lösungsmittel gelöst und subcutan oder dermal appliziert.
# (§3) Der Wirkungsgrad wird dadurch bestimmt, daß man die mit dem Kot ausgeschiedenen Wurmeier vor und nach der Be-handlung quantitativ auszählt.
# (§4) Ein völliges Sistieren der Eiausscheidung nach der Behandlung bedeutet, daß die Würmer abgetrieben wurden oder so geschädigt sind, daß sie keine Eier mehr produzieren können (Dosis effectiva). Geprüfte Wirkstoffe und wirksame Dosierungen (dosis effectiva minima) sind aus der nachfolgenden Tabelle ersichtlich.
# [2] = system: Haemonchus contortus gegen Benz-imidazole resistenter Stamm; assay: Stomach and intestinal worm test in sheep (faecal egg count reduction), benzimidazole-resistant strain; format: in vivo, Schaf; details: read-out: Dosis effectiva minima (Red. 90 % in mg/kg), per os, experimentally infected sheep
# Description: as §1, §2, §3, §4
# [3] = per os, experimentally infected sheep, normaler Stamm
Structure (SMILES),"minimal effective dose ([1]; dermal, experimentally infected sheep, normaler Stamm)","minimal effective dose [1, 3]","minimal effective dose ([1]; subcutan, experimentally infected sheep, normaler Stamm)",minimal effective dose [1],minimal effective dose [2]
"Cc1cccc(OCC2=NCCN2)c1C [2-(2,3-Dimethyl-phenoxymethyl)-2-imidazolin]",1 mg/kg,0.5 mg/kg,0.5 mg/kg,–,–
CCCSc1ccc2nc(NC(=O)OC)[nH]c2c1 [Albendazol],–,–,–,0.5 mg/kg,5 mg/kg
CCCCc1ccc2[nH]c(NC(=O)OC)nc2c1 [Parbendazol],–,–,–,1 mg/kg,10 mg/kg
c1ccc2[nH]c(-c3cscn3)nc2c1 [Thiabenzol],–,25 mg/kg,–,–,250 mg/kg

# — patent publication EP0049797A2, “Anthelminticum containing 2-(2,3-dimethyl-phenoxy-methyl)-2-imidazoline” (BAYER AG, priority 1980, dated 1982)
